Data reported in patent US20030018166A1 (priority 2000, published 2003).
“Also recorded” adds a separate entry of the source. Where two headings read alike, the source gives them in different places.

Assays:
[1] = biological target: recombinant Icl (isocitrate lyase) (Mycobacterium tuberculosis, UniProt P9WKK7); assay: biochemical; assay type: biochemical, M. tuberculosis (CSU93); conditions: for Ki: read-out: inhibition constants; for inhibit the activity to approximately: 5 mM inhibitor concentration
Sequence of recombinant Icl (isocitrate lyase) (P9WKK7 whole entry): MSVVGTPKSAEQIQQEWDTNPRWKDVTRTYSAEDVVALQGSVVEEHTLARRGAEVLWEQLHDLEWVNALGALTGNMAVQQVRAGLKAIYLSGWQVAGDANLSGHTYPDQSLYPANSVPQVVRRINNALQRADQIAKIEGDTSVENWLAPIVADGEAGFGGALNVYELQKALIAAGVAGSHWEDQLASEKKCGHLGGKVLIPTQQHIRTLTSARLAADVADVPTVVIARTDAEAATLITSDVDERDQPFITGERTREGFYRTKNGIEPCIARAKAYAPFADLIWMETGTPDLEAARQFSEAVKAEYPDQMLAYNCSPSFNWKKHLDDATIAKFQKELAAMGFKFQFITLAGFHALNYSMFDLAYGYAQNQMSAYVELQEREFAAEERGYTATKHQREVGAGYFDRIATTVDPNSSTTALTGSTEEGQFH

[2] = test system: wild type M. smegmatis mc^2155; assay type: cell-based; conditions: discs 30 mM and 60 mM
[3] = test system: O=C(O)CC(C(=O)O)C(O)C(=O)O; assay: purified protein, by the assay type

Compound: O=C(O)[C@H](O)COP(=O)(O)O [3-Phosphoglycerate]
- inhibitory effect on Icl activity [1]: no inhibitory effect

Compound: O=C(O)CC[N+](=O)[O-] [3-nitropropionate]
- effect on growth, inhibition zone around disc ([2]; grown on acetate): restricted to growth on acetate; also recorded: inhibitory
- effect on growth, inhibition zone around disc ([2]; grown on glucose): not observed; also recorded: no effect
- Ki [1]: 3 µM

Compound: O=C(O)[C@H](O)[C@@H](O)[C@H](O)[C@H](O)COP(=O)(O)O [6-phosphogluconate]
- inhibitory effect on Icl activity [1]: no inhibitory effect

Compound: C=C(CC(=O)O)C(=O)O [Itaconate]
- Ki [1]: 120 µM

Compound: O=C(O)C(=O)O [Oxalate]
- inhibit the activity to approximately [1]: approximately 50%

Compound: O=C(O)C(=O)CBr [bromopyruvate, 3-bromopyruvate]
- effect on growth, inhibition zone around disc ([2]; grown on glucose): no effect
- Ki [1]: 120 µM

Compound: O=C(COP(=O)(O)O)[C@@H](O)[C@H](O)[C@H](O)COP(=O)(O)O [fructose-1,6-bisphosphate]
- inhibitory effect on Icl activity [1]: no inhibitory effect

Compound: C=C1CC(=O)OC1=O [itaconic anhydride]
- Ki [1]: 190 µM

Compound: O=C(O)CC(O)C(=O)O (stereo not shown) [malate]
- inhibit the activity to approximately [1]: approximately 50%

Compound: O=C(O)CC(=O)O [malonic acid]
- inhibitory effect on Icl activity [1]: no inhibitory effect

Compound: O=C(O)CCC(=O)O [succinate]
- inhibitory effect on the recombinant enzyme [1]: did not reveal any inhibitory effect

Compound: recombinant AceA (isocitrate lyase) (Mycobacterium tuberculosis CDC1551)
- Km ([3]; other: Tricine-HCl buffer at pH 7.5, pH 7.5): 1300 µM

Compound: recombinant Icl (isocitrate lyase) (Mycobacterium tuberculosis H37Rv)
- Km ([3]; other: Hanes-Woolf plot): 145 µM
